Data: US20060228419A1, “Solvent-free process for preparation of hydrophilic dispersions of nanoparticles of inclusion complexes” (SoluBest Ltd., priority 2005, published 2006)

Biological target: T1, hyaluronidase (Bos taurus, UniProt Q2YDK3)
T1 construct: purchased Sigma H 3506; host or cells: bovine testes (natural source)
T1 sequence (Q2YDK3 36-553): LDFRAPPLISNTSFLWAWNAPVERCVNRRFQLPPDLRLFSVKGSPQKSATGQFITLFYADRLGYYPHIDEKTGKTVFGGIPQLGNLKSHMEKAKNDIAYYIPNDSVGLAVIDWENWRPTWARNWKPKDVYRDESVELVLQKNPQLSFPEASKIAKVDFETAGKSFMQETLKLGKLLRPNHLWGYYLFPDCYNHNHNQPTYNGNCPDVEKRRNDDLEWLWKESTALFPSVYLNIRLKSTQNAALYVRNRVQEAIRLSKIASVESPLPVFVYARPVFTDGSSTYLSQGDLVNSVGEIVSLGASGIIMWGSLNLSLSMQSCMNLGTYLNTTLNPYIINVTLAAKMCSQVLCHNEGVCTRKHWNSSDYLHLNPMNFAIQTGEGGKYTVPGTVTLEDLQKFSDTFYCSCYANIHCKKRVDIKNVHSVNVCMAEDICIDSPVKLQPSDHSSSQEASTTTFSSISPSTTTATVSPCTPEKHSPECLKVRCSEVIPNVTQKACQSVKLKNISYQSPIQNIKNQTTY
Test: Stability in the presence of hyaluronidase (decrease of viscosity)
Format: in vitro ADME, bovine
Description: The stability of Solu-NaHA in the presence of the enzyme specific for hyaluronic acid, hyaluronidase (Sigma, H 3506, Hyaluronidase lyophilized (EC 3.2.1.35) Type I-S, from bovine testes, 608 U/mg solid) was measured by the decrease of the viscosity in time in comparison to blank. The degree of stability (protection against action of hyaluronidase) is defined as a decrease in the viscosity of the NaHA solution upon addition of the enzyme (dose of enzyme—10 U/ml). The control used was 0.1% solution of NaHA without the wrapping polymer (blank). Samples were maintained on a water bath at temperature 37° C. during 5 hrs. Sample made by Visco Star Plus. The decrease in viscosity was estimated in percentage to its initial value. The results in FIG. 5 show the stability of Solu-NaHA prepared with polymer A (NaHA with HPS) or with Polymer B (NaHA with B-790) against the action of hyaluronidase, established as 84-100% vs control 58-63%.
The stability of NaHA in the Solu-NaHA in the presence of hyaluronidase was measured by the decrease of the viscosity over time in comparison to blank. The stability of Solu-NaHA against the action of hyaluronidase was 70-90% vs 40-45% in blank (0.5% solution of NaHA).
The degree of stability of NaHA was measured as described in Example 7 above. The control used was 0.5% solution of NaHA without any polymer (blank). Samples were maintained on a water bath at temperature 37° C. during 5 hrs. Measurement of viscosity was made by Visco Star Plus. Decrease in viscosity is estimated in percentage relative to its initial value. It is established, that protection of Solu-NaHA with polymer A (HPS) against action of hyaluronidase gives a viscosity of 67-70% vs the control protection of 20-27%.

Row | stability against the action of hyaluronidase (0.1% NaHA, enzyme 10 U/ml, 37° C., up to 5 hrs, viscosity in percentage to initial value) | viscosity under enzyme activity, percentage relative to initial value (0.5% NaHA, 37° C., 5 hrs) | stability against the action of hyaluronidase (0.5% NaHA, viscosity over time versus blank (FIG. 6)) | Substance
1 | 58-63% |  |  | sodium hyaluronate [0.1% solution of NaHA]
2 |  | 20-27% | 40-45% | sodium hyaluronate [0.5% solution of NaHA]
